Several values for one entry are separate records, joined by “and”; a condition that tells them apart may be missing. Equal values may be shown once.
How the values were obtained:
Rattus norvegicus [1] = test: The behavior disruption data as percent change in response from drug versus saline at dose 5mg/Kg, expressed as L (Late).; assay type: functional
Rattus norvegicus [2] = test: The behavior disruption data as percent change in response from drug versus saline at dose 5 mg/kg, expressed as B/P (burst/premature).; assay type: functional
Rattus norvegicus [3] = test: The behavior disruption data as percent change in response from drug versus saline at dose 1.25mg/Kg, expressed as E (efficient); assay type: functional
Rattus norvegicus [4] = test: The behavior disruption data as percent change in response from drug versus saline at dose 5mg/Kg, expressed as E (efficient); assay type: functional
Rattus norvegicus [5] = test: The behavior disruption data as percent change in response from drug versus saline at dose 2.5mg/Kg, expressed as E (efficient); assay type: functional
Rattus norvegicus [6] = test: The behavior disruption data as percent change in response from drug versus saline at dose 2.5 mg/kg, expressed as B/P (burst/premature).; assay type: functional
Rattus norvegicus [7] = test: The behavior disruption data as percent change in response from drug versus saline at dose 2.5mg/Kg, expressed as L (Late).; assay type: functional
Rattus norvegicus [8] = test: The behavior disruption data as percent change in response from drug versus saline at dose 1.25mg/Kg, expressed as L (Late).; assay type: functional
Rattus norvegicus [9] = test: The behavior disruption data as percent change in response from drug versus saline at dose 1.25 mg/kg, expressed as B/P (burst/premature).; assay type: functional
Rattus norvegicus [10] = test: The behavior disruption data as percent change in response from drug versus saline at dose 1 mg/kg, expressed as B/P (burst/premature).; assay type: functional
Rattus norvegicus [11] = test: The behavior disruption data as percent change in response from drug versus saline at dose 2mg/Kg, expressed as E (efficient); assay type: functional
Rattus norvegicus [12] = test: The behavior disruption data as percent change in response from drug versus saline at dose 2mg/Kg, expressed as L (Late).; assay type: functional
Rattus norvegicus [13] = test: The behavior disruption data as percent change in response from drug versus saline at dose 1mg/Kg, expressed as L (Late).; assay type: functional
Rattus norvegicus [14] = test: The behavior disruption data as percent change in response from drug versus saline at dose 1mg/Kg, expressed as E (efficient); assay type: functional
Rattus norvegicus [15] = test: The behavior disruption data as percent change in response from drug versus saline at dose 2mg/kg, expressed as B/P (burst/premature).; assay type: functional
Rattus norvegicus [16] = test: The behavior disruption data as percent change in response from drug versus saline at dose 10mg/Kg, expressed as L (Late).; assay type: functional
[17] = Hill coefficient of the compound
Rattus norvegicus [18] = test: The behavior disruption data as percent change in response from drug versus saline at dose 15 mg/kg, expressed as B/P (burst/premature).; assay type: functional
[19] = biological target: Serotonin (5-HT) receptor; test: Ability to displace [3H]5-HT binding to 5-hydroxytryptamine receptor site using 1 uM LSD as masking ligand; assay type: protein assay, Cavia porcellus
[20] = Ability to displace [3H]LSD binding to Lysergic acid diethylamide receptor site using 1 uM 5-HT as masking ligand; set-up: species or system Cavia porcellus
Rattus norvegicus [21] = test: The behavior disruption data as percent change in response from drug versus saline at dose 15mg/Kg, expressed as E (efficient); assay type: functional
Rattus norvegicus [22] = test: The behavior disruption data as percent change in response from drug versus saline at dose 10mg/Kg, expressed as E (efficient); assay type: functional
Rattus norvegicus [23] = test: The behavior disruption data as percent change in response from drug versus saline at dose 10 mg/kg, expressed as B/P (burst/premature).; assay type: functional
Rattus norvegicus [24] = test: The behavior disruption data as percent change in response from drug versus saline at dose 15mg/Kg, expressed as L (Late).; assay type: functional
[25] = biological target: Serotonin (5-HT) receptor; test: Ability to displace [3H]5-HT binding from 5-hydroxytryptamine receptor site using 1 uM LSD as masking ligand; assay type: protein assay, Cavia porcellus
Rattus norvegicus [26] = test: The behavior disruption data as percent change in response from drug versus saline at dose 8 mg/kg, expressed as B/P (burst/premature).; assay type: functional
Rattus norvegicus [27] = test: The behavior disruption data as percent change in response from drug versus saline at dose 4 mg/kg, expressed as B/P (burst/premature).; assay type: functional
Rattus norvegicus [28] = test: The behavior disruption data was measured as percent change in response from drug versus saline at dose 2 mg/kg, activity expressed as L (Late).; assay type: functional
Rattus norvegicus [29] = test: The behavior disruption data as percent change in response from drug versus saline at dose 8mg/Kg, expressed as E (efficient); assay type: functional
Rattus norvegicus [30] = test: The behavior disruption data as percent change in response from drug versus saline at dose 4mg/Kg, expressed as E (efficient); assay type: functional
Rattus norvegicus [31] = test: The behavior disruption data as percent change in response from drug versus saline at dose 8mg/Kg, expressed as L (Late).; assay type: functional
Rattus norvegicus [32] = test: The behavior disruption data as percent change in response from drug versus saline at dose 4mg/Kg, expressed as L (Late).; assay type: functional
Rattus norvegicus [33] = test: The behavior disruption data as percent change in response from drug versus saline at dose 0.25mg/Kg, expressed as E (efficient); assay type: functional
Rattus norvegicus [34] = test: The behavior disruption data as percent change in response from drug versus saline at dose 0.25mg/Kg, expressed as L (Late).; assay type: functional
Rattus norvegicus [35] = test: The behavior disruption data as percent change in response from drug versus saline at dose 0.5 mg/kg, expressed as B/P (burst/premature).; assay type: functional
Rattus norvegicus [36] = test: The behavior disruption data as percent change in response from drug versus saline at dose 0.5 mg/Kg, expressed as E (efficient); assay type: functional
Rattus norvegicus [37] = test: The behavior disruption data as percent change in response from drug versus saline at dose 0.5 mg/Kg, expressed as L (Late).; assay type: functional
Rattus norvegicus [38] = test: The behavior disruption data as percent change in response from drug versus saline at dose 0.25 mg/kg, expressed as B/P (burst/premature).; assay type: functional

SMILES | Change in response (Rattus norvegicus [1]) | Change in response (Rattus norvegicus [2]) | Change in response (Rattus norvegicus [4]) | Change in response (Rattus norvegicus [10]) | Change in response (Rattus norvegicus [11]) | Change in response (Rattus norvegicus [12]) | Change in response (Rattus norvegicus [13]) | Change in response (Rattus norvegicus [14]) | Change in response (Rattus norvegicus [15]) | Hill coefficient [17] | IC50 [19] | IC50 [20] | Change in response (Rattus norvegicus [35]) | Change in response (Rattus norvegicus [36]) | Change in response (Rattus norvegicus [37]) | also measured
COc1ccc2c(CCN(C)C)c[nH]c2c1 | 21% | 29% | 50% | – | – | – | – | – | – | – | – | – | – | – | – | Change in response (Rattus norvegicus [3]): 21%; Change in response (Rattus norvegicus [5]): 34%; Change in response (Rattus norvegicus [6]): 26%; Change in response (Rattus norvegicus [7]): 8%; Change in response (Rattus norvegicus [8]): 5%; Change in response (Rattus norvegicus [9]): 25%
COc1ccc2[nH]cc(CCN(C)C)c2c1 [MEBUFOTENIN] | – | – | – | 6% | 26% | 9% | 5% | 11% | 19% | – | – | – | – | – | – | –
CN(C)CCc1c[nH]c2cc3c(cc12)OCO3 | 2% | 9% | 11% | – | – | – | – | – | – | 0.95 and 1.01 | 0.0000407 M l-1 | 1.78e-6 M l-1 | – | – | – | Change in response (Rattus norvegicus [16]): 9%; Change in response (Rattus norvegicus [18]): 22%; Change in response (Rattus norvegicus [21]): 41%; Change in response (Rattus norvegicus [22]): 26%; Change in response (Rattus norvegicus [23]): 19%; Change in response (Rattus norvegicus [24]): 19%
CSc1cccc2[nH]cc(CCN(C(C)C)C(C)C)c12 | 4% | 1% | 5% | – | – | – | – | – | – | 0.7 | – | – | – | – | – | Change in response (Rattus norvegicus [16]): 9%; Change in response (Rattus norvegicus [22]): 32%; Change in response (Rattus norvegicus [23]): 23%
CC(C)N(CCc1c[nH]c2cc3c(cc12)OCO3)C(C)C | 2% | 2% | 4% | – | – | – | – | – | – | 0.642 | – | 0.00001 M l-1 | – | – | – | Change in response (Rattus norvegicus [16]): 16%; Change in response (Rattus norvegicus [3]): 0%; IC50 [25]: 0.000933 M l-1; Change in response (Rattus norvegicus [5]): 2%; Change in response (Rattus norvegicus [6]): 0%; Change in response (Rattus norvegicus [22]): 45%; Change in response (Rattus norvegicus [23]): 29%; Change in response (Rattus norvegicus [7]): 2%; Change in response (Rattus norvegicus [8]): 1%; Change in response (Rattus norvegicus [9]): 1%
CSc1cccc2[nH]cc(CCN(C)C)c12 | – | – | – | 0% | 11% | – | 1% | 1% | 8% | 0.75 and 1.01 | 0.000151 M l-1 | 0.0000125 M l-1 | – | – | – | Change in response (Rattus norvegicus [26]): 36%; Change in response (Rattus norvegicus [27]): 20%; Change in response (Rattus norvegicus [28]): 3%; Change in response (Rattus norvegicus [29]): 52%; Change in response (Rattus norvegicus [30]): 27%; Change in response (Rattus norvegicus [31]): 15%; Change in response (Rattus norvegicus [32]): 6%
CN(C)CCc1c[nH]c2ccc3c(c12)OCO3 | – | – | – | 5% | 31% | 20% | 5% | 10% | 11% | – | – | – | 0% | 5% | 5% | Change in response (Rattus norvegicus [33]): 3%; Change in response (Rattus norvegicus [34]): 5%; Change in response (Rattus norvegicus [38]): 3%
CC(C)N(CCc1c[nH]c2ccc3c(c12)OCO3)C(C)C | – | – | – | – | – | – | – | – | – | 0.343 | 2.24e-6 M l-1 | 2.88e-6 M l-1 | – | – | – | Change in response (Rattus norvegicus [3]): 28%; Change in response (Rattus norvegicus [5]): 49%; Change in response (Rattus norvegicus [6]): 38%; Change in response (Rattus norvegicus [7]): 11%; Change in response (Rattus norvegicus [8]): 74%; Change in response (Rattus norvegicus [9]): 24%
CSc1ccc2[nH]cc(CCN(C)C)c2c1 | – | – | – | 16% | – | – | 49% | 65% | – | 0.91 and 0.995 | – | 1.44e-7 M l-1 | 13% | 26% | 7% | IC50 [25]: 1e-6 M l-1
COc1cccc2[nH]cc(CCN(C)C)c12 | – | – | – | 9% | 27% | 7% | 6% | 25% | 10% | – | – | – | 0% | 2% | 2% | –
CSc1ccc2c(CCN(C)C)c[nH]c2c1 | – | – | – | 8% | 30% | 19% | 4% | 13% | 20% | 0.97 and 0.57 | 0.0000408 M l-1 | 7.59e-6 M l-1 | 4% | 8% | 4% | Change in response (Rattus norvegicus [27]): 34%; Change in response (Rattus norvegicus [30]): 48%; Change in response (Rattus norvegicus [32]): 14%

Reference: ChEMBL document CHEMBL1122199, “Structure-activity relationships in potentially hallucinogenic N,N-dialkyltryptamines substituted in the benzene moiety” (J Med Chem, 1982)
